The source made the active and inactive calls. The rule behind the calls is not given here.
Tests used:
Format in all cases: functional, organism-based
Deroceras reticulatum [1] = test: Molluscicidal activity against Deroceras reticulatum in Chinese cabbage at 5 g/m2 after 7 to 42 days by miniplot trial analysis in presence of 17 mm rainfall
Arion subfuscus [2] = test: Molluscicidal activity against Arion subfuscus in Chinese cabbage at 5 g/m2 after 21 to 28 days by miniplot trial analysis in presence of 65.8 mm rainfall
Arion subfuscus [3] = test: Molluscicidal activity against Arion subfuscus in Chinese cabbage at 5 g/m2 after 7 to 14 days by miniplot trial analysis in presence of 65.8 mm rainfall
Deroceras reticulatum [4] = test: Molluscicidal activity against Deroceras reticulatum in Chinese cabbage at 5 g/m2 after 7 to 28 days by miniplot trial analysis in presence of 65.8 mm rainfall
Arion subfuscus [5] = test: Molluscicidal activity against Arion subfuscus in Chinese cabbage at 5 g/m2 after 7 to 42 days by miniplot trial analysis in presence of 17 mm rainfall
Deroceras reticulatum [6] = test: Molluscicidal activity against Deroceras reticulatum in Chinese cabbage at 0.8 g/m2 after 7 to 14 days by miniplot trial analysis in presence of 135 mm rainfall
Arion subfuscus [7] = test: Molluscicidal activity against Arion subfuscus in Chinese cabbage at 0.8 g/m2 after 7 to 14 days by miniplot trial analysis in presence of 135 mm rainfall
Deroceras reticulatum [8] = test: Molluscicidal activity against Deroceras reticulatum assessed as reduction of slug number at 0.8 g/m2 after 42 days
Arion subfuscus [9] = test: Molluscicidal activity against Arion subfuscus in Chinese cabbage at 0.8 g/m2 after 7 to 14 days by miniplot trial analysis in presence of 65.8 mm rainfall
Arion subfuscus [10] = test: Molluscicidal activity against Arion subfuscus in Chinese cabbage at 0.8 g/m2 after 21 to 28 days by miniplot trial analysis in presence of 65.8 mm rainfall
Deroceras reticulatum [11] = test: Molluscicidal activity against Deroceras reticulatum in Chinese cabbage at 0.8 g/m2 after 7 to 42 days by miniplot trial analysis in presence of 65.4 mm rainfall
Deroceras reticulatum [12] = test: Molluscicidal activity against Deroceras reticulatum in Chinese cabbage at 0.8 g/m2 after 21 to 42 days by miniplot trial analysis in presence of 135 mm rainfall
Arion subfuscus [13] = test: Molluscicidal activity against Arion subfuscus in Chinese cabbage at 0.8 g/m2 after 7 days by miniplot trial analysis in presence of 135 mm rainfall
Arion subfuscus [14] = test: Molluscicidal activity against Arion subfuscus in Chinese cabbage at 0.8 g/m2 after 7 to 42 days
Deroceras reticulatum [15] = test: Molluscicidal activity against Deroceras reticulatum in Chinese cabbage at 0.8 g/m2 after 7 to 42 days
Deroceras reticulatum [16] = test: Molluscicidal activity against Deroceras reticulatum in Chinese cabbage at 0.8 g/m2 after 7 to 28 days by miniplot trial analysis in presence of 65.8 mm rainfall
Arion subfuscus [17] = test: Molluscicidal activity against Arion subfuscus assessed as reduction of slug number at 0.8 g/m2 after 42 days
Arion subfuscus [18] = test: Molluscicidal activity against Arion subfuscus in Chinese cabbage at 0.8 g/m2 after 7 to 42 days by miniplot trial analysis in presence of 17 mm rainfall
Arion subfuscus [19] = test: Molluscicidal activity against Arion subfuscus in Chinese cabbage at 0.8 g/m2 after 7 to 42 days by miniplot trial analysis in presence of 65.4 mm rainfall
Arion subfuscus [20] = test: Molluscicidal activity against Arion subfuscus in Chinese cabbage at 0.8 g/m2 after 21 to 42 days by miniplot trial analysis in presence of 135 mm rainfall
Deroceras panormitanum = test: Molluscicidal activity against Deroceras panormitanum assessed as reduction of slug number at 0.8 g/m2 after 42 days
Deroceras reticulatum [21] = test: Molluscicidal activity against Deroceras reticulatum in Chinese cabbage at 0.8 g/m2 after 7 to 42 days by miniplot trial analysis in presence of 17 mm rainfall
Deroceras reticulatum [22] = test: Molluscicidal activity against Deroceras reticulatum in Chinese cabbage at 0.8 g/m2 after 7 days by miniplot trial analysis in presence of 135 mm rainfall

Molecule: IRON PHOSPHATE
- Activity (Deroceras reticulatum [1]): Active
- Activity (Arion subfuscus [2]): inactive
- Activity (Arion subfuscus [3]): Active
- Activity (Deroceras reticulatum [4]): Active
- Activity (Arion subfuscus [5]): Active

Molecule: CC1OC(C)OC(C)OC(C)O1 (stereo not drawn)
- Activity (Deroceras reticulatum [6]): Active
- Activity (Arion subfuscus [7]): Active
- Activity (Deroceras reticulatum [8]): inactive
- Activity (Arion subfuscus [9]): Active
- Activity (Arion subfuscus [10]): inactive
- Activity (Deroceras reticulatum [11]): Active
- Activity (Deroceras reticulatum [12]): Active
- Activity (Arion subfuscus [13]): Active
- Activity (Arion subfuscus [14]): Active
- Activity (Deroceras reticulatum [15]): Active
- Activity (Deroceras reticulatum [16]): Active
- Activity (Arion subfuscus [17]): inactive
- Activity (Arion subfuscus [18]): Active
- Activity (Arion subfuscus [19]): Active
- Activity (Arion subfuscus [20]): Active
- Activity (Deroceras panormitanum): inactive
- Activity (Deroceras reticulatum [21]): Active
- Activity (Deroceras reticulatum [22]): Active

Source: ChEMBL document CHEMBL3044863, “Optimization of biological (Phasmarhabditis hermaphrodita) and chemical (iron phosphate and metaldehyde) slug control” (Crop Prot, 2009)
